Experimental data: ChEMBL document CHEMBL4828718, “Synthesis and Antifungal Activity Evaluation of Phloeodictine Analogues” (J Nat Prod, 2021)
Calls of active or inactive are those of the source. No cut-off for these calls is given here.

Tests used:
Aspergillus fumigatus [1] = assay: Antifungal activity against Aspergillus fumigatus ATCC 90906 assessed as fungal growth inhibition incubated for 72 hrs by alamar blue assay; format: functional
Candida albicans [2] = assay: Antifungal activity against Candida albicans ATCC 90028 assessed as fungal growth inhibition incubated for 18 to 24 hrs by alamar blue assay; format: functional
Candida albicans [3] = assay: Fungicidal activity against Candida albicans ATCC 90028 assessed as fungal growth inhibition incubated for 18 to 24 hrs by alamar blue assay; format: functional
Nakaseomyces glabratus [4] = assay: Fungicidal activity against Candida glabrata ATCC 90030 assessed as fungal growth inhibition incubated for 18 to 24 hrs by alamar blue assay; format: functional
Aspergillus fumigatus [5] = assay: Fungicidal activity against Aspergillus fumigatus ATCC 90906 assessed as fungal growth inhibition incubated for 72 hrs by alamar blue assay; format: functional
Vero = assay: Cytotoxicity against African green monkey Vero cells assessed as reduction in cell viability incubated for 48 hrs by neutral red dye based assay; set-up: species or system Chlorocebus sabaeus; details: Chlorocebus sabaeus, Vero, 48 h
Nakaseomyces glabratus [6] = assay: Antifungal activity against Candida glabrata ATCC 90030 assessed as fungal growth inhibition incubated for 18 to 24 hrs by alamar blue assay; format: functional
Pichia kudriavzevii [7] = assay: Antifungal activity against Candida krusei ATCC 6258 assessed as fungal growth inhibition incubated for 18 to 24 hrs by alamar blue assay; format: functional
Cryptococcus neoformans [8] = assay: Fungicidal activity against Cryptococcus neoformans ATCC 90113 assessed as fungal growth inhibition incubated for 72 hrs by alamar blue assay; format: functional; details: Cryptococcus neoformans, ATCC 90113, 72 h, read-out: MFC
Pichia kudriavzevii [9] = assay: Fungicidal activity against Candida krusei ATCC 6258 assessed as fungal growth inhibition incubated for 18 to 24 hrs by alamar blue assay; format: functional
Cryptococcus neoformans [10] = assay: Antifungal activity against Cryptococcus neoformans ATCC 90113 assessed as fungal growth inhibition incubated for 72 hrs by alamar blue assay; format: functional; details: Cryptococcus neoformans, ATCC 90113, 72 h, read-out: MIC
[11] = Candida albicans, ATCC 90028, time 18-24 hrs, read-out: MIC
[12] = Nakaseomyces glabratus, ATCC 90030, time 18-24 hrs, read-out: MFC
[13] = Nakaseomyces glabratus, ATCC 90030, time 18-24 hrs, read-out: MIC
[14] = Pichia kudriavzevii, ATCC 6258, time 18-24 hrs, read-out: MIC
[15] = Pichia kudriavzevii, ATCC 6258, time 18-24 hrs, read-out: MFC
[16] = Aspergillus fumigatus, ATCC 90906, 72 h, read-out: MIC
[17] = Candida albicans, ATCC 90028, time 18-24 hrs, read-out: MFC
[18] = Aspergillus fumigatus, ATCC 90906, 72 h, read-out: MFC

SMILES	MIC (Aspergillus fumigatus [1])	MIC (Candida albicans [2]; [11]) [µM]	MIC (Nakaseomyces glabratus [6]; [13]) [µM]	MIC (Pichia kudriavzevii [7]; [14]) [µM]	MIC (Cryptococcus neoformans [10]) [µM]	MIC (Aspergillus fumigatus [1]; [16]) [µM]	MIC (Candida albicans [2]; time 18-24 hrs)	MIC (Nakaseomyces glabratus [6]; time 18-24 hrs)	MIC (Pichia kudriavzevii [7]; time 18-24 hrs)	MFC (Candida albicans [3]; time 18-24 hrs)	MFC (Nakaseomyces glabratus [4]; [12]) [µM]	MFC (Aspergillus fumigatus [5])	IC50 (Vero) [µM]	MFC (Cryptococcus neoformans [8]) [µM]	MFC (Pichia kudriavzevii [9]; [15]) [µM]	MFC (Candida albicans [3]; [17]) [µM]	MFC (Aspergillus fumigatus [5]; [18]) [µM]	MFC (Nakaseomyces glabratus [4]; time 18-24 hrs)	MFC (Pichia kudriavzevii [9]; time 18-24 hrs)
CCCCCCCCCCCCCCC1(O)C(C)=C(C)C2=[N+](Cc3ccc(Cl)cc3)CCCN21 (stereo not drawn)		3.7	2.1	2.1	3.7	4.4					2.1		42	3.7	2.1	3.7	4.4		
CCCCCCCCCCCCCCC1(O)C(C)=C(C)C2=[N+](CC(=O)NCCCC)CCCN21 (stereo not drawn)		7.5	5.2	3.8	1.8	7.5					5.9		45	1.8	3.8	10	7.5		
CCCCCCCCCCCCCCC1(O)C(C)=C(C)C2=[N+](Cc3ccc([N+](=O)[O-])cc3)CCCN21 (stereo not drawn)		4.3	2.1	1.7	1.4	5					2.1		36	1.4	1.7	4.3	5		
CCCCCCCCCCCCCCC1(O)C(C)=C(C)C2=[N+](CC(=O)O)CCCN21 (stereo not drawn)	inactive				5.4		inactive	inactive	inactive	inactive		inactive	> 50	5.4				inactive	inactive
CCCCCCCCCCCCCCC1(O)c2ccccc2C2=[N+](C)CCCN21 (stereo not drawn)		4.3	13	13	6.4	35					16		42	6.4	13	4.3	35		

Further lines, with some results ahead:

MIC (Aspergillus fumigatus [1])	MIC (Candida albicans [2]; [11]) [µM]	MIC (Nakaseomyces glabratus [6]; [13]) [µM]	MIC (Pichia kudriavzevii [7]; [14]) [µM]	MIC (Cryptococcus neoformans [10]) [µM]	MIC (Aspergillus fumigatus [1]; [16]) [µM]	MIC (Candida albicans [2]; time 18-24 hrs)	MIC (Nakaseomyces glabratus [6]; time 18-24 hrs)	MIC (Pichia kudriavzevii [7]; time 18-24 hrs)	SMILES	MFC (Candida albicans [3]; time 18-24 hrs)	MFC (Nakaseomyces glabratus [4]; [12]) [µM]	MFC (Aspergillus fumigatus [5])	IC50 (Vero) [µM]	MFC (Cryptococcus neoformans [8]) [µM]	MFC (Pichia kudriavzevii [9]; [15]) [µM]	MFC (Candida albicans [3]; [17]) [µM]	MFC (Aspergillus fumigatus [5]; [18]) [µM]	MFC (Nakaseomyces glabratus [4]; time 18-24 hrs)	MFC (Pichia kudriavzevii [9]; time 18-24 hrs)
inactive	30	2.5	3.7	1.8					CCCCCCCCCCCCCCC1(O)C(C)=C(C)C2=[N+](Cc3cc(C(F)(F)F)cc(C(F)(F)F)c3)CCCN21 (stereo not drawn)	inactive	2.5	inactive	> 37	2.5	3.7				
	5.4	2	2	3.4	5.4				CCCCCCCCCCCCCCC1(O)C(C)=C(C)C2=[N+](Cc3ccc(Br)cc3)CCCN21 (stereo not drawn)		2		35	6	2	5.4	8.2		
	3.5	3.5	2.5	1	5.2				C=CC[N+]1=C2C(C)=C(C)C(O)(CCCCCCCCCCCCCC)N2CCC1 (stereo not drawn)		5.2		32	4.1	2.5	4.3	17		
	4.5	2.1	2.1	1.1	4.5				CCCCCCCCCCCCCCC1(O)C(C)=C(C)C2=[N+](Cc3ccc(C#N)cc3)CCCN21 (stereo not drawn)		2.1		29	1.1	2.1	4.5	4.5		
	5	4.2	2	0.99	5				CCCCCCCCCCCCCCC1(O)C(C)=C(C)C2=[N+](C)CCCN21 (stereo not drawn)		5		39	2.4	2	6.5	5		
	3.7	3	1.8	1.1	3.7				CCCCCCCCCCCCCCC1(O)C(C)=C(C)C2=[N+](Cc3ccc(OC)cc3)CCCN21 (stereo not drawn)		3		24	1.4	2.7	3.7	5.1		
	5.4	3.4	2.8	1.3	6.8				CCCCCCCCCCCCCCC1(O)C(C)=C(C)C2=[N+](Cc3cnnn3Cc3ccccc3)CCCN21 (stereo not drawn)		4.7		> 40	2	2.8	6.8	6.8		
inactive				3.9		inactive	inactive	inactive	CCCCCCCCCCCCCCC1(O)C(C)=C(C)C2=[N+](Cc3ccc4ccccc4c3)CCCN21 (stereo not drawn)	inactive		inactive	42	12				inactive	inactive
